In ChEMBL document CHEMBL4270528, “Design, synthesis, molecular modeling and anti-proliferative evaluation of novel quinoxaline derivatives as potential DNA intercalators and topoisomerase II inhibitors” (Eur J Med Chem, 2018):
Activity calls are given as the source filed them. The calls are words filed in the database; no cut-off is given here.

How the values were obtained:
HepG2 = test: Antiproliferative activity against human HepG2 cells after 48 hrs by neutral red assay; type: functional, cell-based; conditions: HepG2, 48 h
HEp-2 = test: Antiproliferative activity against human Hep2 cells after 48 hrs by neutral red assay; type: functional, cell-based; conditions: HEp-2, 48 h
Caco-2 [1] = test: Antiproliferative activity against human Caco2 cells after 48 hrs by neutral red assay; type: functional, cell-based; conditions: Caco-2, 48 h
Calf thymus DNA = test: Inhibition of methyl green binding to calf thymus DNA incubated for 24 hrs in dark by spectrophotometric method; type: nucleic-acid assay, Bos taurus
[2] = target: T1, DNA topoisomerase 2-alpha (Homo sapiens, UniProt P11388); test: Inhibition of human topoisomerase 2 using supercoiled pHOT1 DNA as substrate after 30 mins by agarose gel electrophoresis
Escherichia coli = test: Induction of Escherichia coli bacteriophage lambda DNA intercalation assessed as inhibition of Sal 1/EcoR 1-mediated DNA cleavage after 2 hrs by agarose gel electrophoresis
[3] = target: T1, DNA topoisomerase 2-alpha; test: Inhibition of human topoisomerase 2 assessed as cleavage complex formation at 10 uM using pBS-SK(+) DNA as substrate after 60 mins by agarose gel electrophoresis
[4] = target: T1, DNA topoisomerase 2-alpha; test: Inhibition of recombinant human topoisomerase 2 assessed as reduction in relaxation of supercoiled pBS-SK(+) DNA at 10 uM after 30 mins by agarose gel electrophoresis
[5] = target: T1, DNA topoisomerase 2-alpha; test: Inhibition of recombinant human topoisomerase 2 assessed as reduction in relaxation of supercoiled pBS-SK(+) DNA at 10 to 50 uM after 30 mins by agarose gel electrophoresis
Caco-2 [6] = test: Induction of apoptosis in human Caco2 cells assessed as early apoptotic cells at 0.5 uM after 24 hrs by Annexin V-FITC/propidium iodide staining based flow cytometry (reference value: 0.48%); type: functional
Caco-2 [7] = test: Down regulation of Caspase 8 mRNA expression level in human Caco2 cells by qRT-PCR method; type: functional, cell-based
[8] = target: T1, DNA topoisomerase 2-alpha; test: Inhibition of recombinant human topoisomerase 2 assessed as reduction in relaxation of supercoiled pBS-SK(+) DNA after 30 mins by agarose gel electrophoresis
Caco-2 [9] = test: Cell cycle arrest in human Caco2 cells assessed as accumulation at S phase at 0.5 uM after 24 hrs by propidium iodide staining based flow cytometry (reference value: 30.96%); type: functional
Caco-2 [10] = test: Induction of apoptosis in human Caco2 cells assessed as accumulation at pre-G1 phase at 0.5 uM after 24 hrs by Annexin V-FITC/propidium iodide staining based flow cytometry (reference value: 2.76%); type: functional
Caco-2 [11] = test: Induction of apoptosis in human Caco2 cells assessed as necrotic cells at 0.5 uM after 24 hrs by Annexin V-FITC/propidium iodide staining based flow cytometry (reference value: 1.59%); type: functional
Caco-2 [12] = test: Induction of apoptosis in human Caco2 cells assessed as late apoptotic cells at 0.5 uM after 24 hrs by Annexin V-FITC/propidium iodide staining based flow cytometry (reference value: 0.69%); type: functional
Caco-2 [13] = test: Induction of apoptosis in human Caco2 cells assessed as viable cells at 0.5 uM after 24 hrs by Annexin V-FITC/propidium iodide staining based flow cytometry (reference value: 96.65%); type: functional; conditions: Caco-2, 24 h, read-out: Activity
Caco-2 [14] = test: Down regulation of Bec1 mRNA expression level in human Caco2 cells by qRT-PCR method; type: functional, cell-based
Caco-2 [15] = test: Cell cycle arrest in human Caco2 cells assessed as accumulation at G0/G1 phase at 0.5 uM after 24 hrs by propidium iodide staining based flow cytometry (reference value: 53.85%); type: functional
Caco-2 [16] = test: Cell cycle arrest in human Caco2 cells assessed as accumulation at G2/M phase at 0.5 uM after 24 hrs by propidium iodide staining based flow cytometry (reference value: 15.19%); type: functional
Caco-2 [17] = test: Down regulation of Bax mRNA expression level in human Caco2 cells by qRT-PCR method; type: functional, cell-based
Caco-2 [18] = test: Down regulation of Cyclin B mRNA expression level in human Caco2 cells by qRT-PCR method; type: functional, cell-based
Caco-2 [19] = test: Upregulation of […] mRNA expression level in human Caco2 cells by qRT-PCR method; type: functional, cell-based
[20] = target: T1, DNA topoisomerase 2-alpha; test: Inhibition of human topoisomerase 2 assessed as cleavage complex formation at 25 to 50 uM using pBS-SK(+) DNA as substrate after 60 mins by agarose gel electrophoresis
Caco-2 [21] = test: Down regulation of Bcl-2 mRNA expression level in human Caco2 cells by qRT-PCR method; type: functional, cell-based
[22] = target: T1, DNA topoisomerase 2-alpha; test: Inhibition of recombinant human topoisomerase 2 assessed as reduction in relaxation of supercoiled pBS-SK(+) DNA at 5 uM after 30 mins by agarose gel electrophoresis

T1 sequence (P11388 whole entry): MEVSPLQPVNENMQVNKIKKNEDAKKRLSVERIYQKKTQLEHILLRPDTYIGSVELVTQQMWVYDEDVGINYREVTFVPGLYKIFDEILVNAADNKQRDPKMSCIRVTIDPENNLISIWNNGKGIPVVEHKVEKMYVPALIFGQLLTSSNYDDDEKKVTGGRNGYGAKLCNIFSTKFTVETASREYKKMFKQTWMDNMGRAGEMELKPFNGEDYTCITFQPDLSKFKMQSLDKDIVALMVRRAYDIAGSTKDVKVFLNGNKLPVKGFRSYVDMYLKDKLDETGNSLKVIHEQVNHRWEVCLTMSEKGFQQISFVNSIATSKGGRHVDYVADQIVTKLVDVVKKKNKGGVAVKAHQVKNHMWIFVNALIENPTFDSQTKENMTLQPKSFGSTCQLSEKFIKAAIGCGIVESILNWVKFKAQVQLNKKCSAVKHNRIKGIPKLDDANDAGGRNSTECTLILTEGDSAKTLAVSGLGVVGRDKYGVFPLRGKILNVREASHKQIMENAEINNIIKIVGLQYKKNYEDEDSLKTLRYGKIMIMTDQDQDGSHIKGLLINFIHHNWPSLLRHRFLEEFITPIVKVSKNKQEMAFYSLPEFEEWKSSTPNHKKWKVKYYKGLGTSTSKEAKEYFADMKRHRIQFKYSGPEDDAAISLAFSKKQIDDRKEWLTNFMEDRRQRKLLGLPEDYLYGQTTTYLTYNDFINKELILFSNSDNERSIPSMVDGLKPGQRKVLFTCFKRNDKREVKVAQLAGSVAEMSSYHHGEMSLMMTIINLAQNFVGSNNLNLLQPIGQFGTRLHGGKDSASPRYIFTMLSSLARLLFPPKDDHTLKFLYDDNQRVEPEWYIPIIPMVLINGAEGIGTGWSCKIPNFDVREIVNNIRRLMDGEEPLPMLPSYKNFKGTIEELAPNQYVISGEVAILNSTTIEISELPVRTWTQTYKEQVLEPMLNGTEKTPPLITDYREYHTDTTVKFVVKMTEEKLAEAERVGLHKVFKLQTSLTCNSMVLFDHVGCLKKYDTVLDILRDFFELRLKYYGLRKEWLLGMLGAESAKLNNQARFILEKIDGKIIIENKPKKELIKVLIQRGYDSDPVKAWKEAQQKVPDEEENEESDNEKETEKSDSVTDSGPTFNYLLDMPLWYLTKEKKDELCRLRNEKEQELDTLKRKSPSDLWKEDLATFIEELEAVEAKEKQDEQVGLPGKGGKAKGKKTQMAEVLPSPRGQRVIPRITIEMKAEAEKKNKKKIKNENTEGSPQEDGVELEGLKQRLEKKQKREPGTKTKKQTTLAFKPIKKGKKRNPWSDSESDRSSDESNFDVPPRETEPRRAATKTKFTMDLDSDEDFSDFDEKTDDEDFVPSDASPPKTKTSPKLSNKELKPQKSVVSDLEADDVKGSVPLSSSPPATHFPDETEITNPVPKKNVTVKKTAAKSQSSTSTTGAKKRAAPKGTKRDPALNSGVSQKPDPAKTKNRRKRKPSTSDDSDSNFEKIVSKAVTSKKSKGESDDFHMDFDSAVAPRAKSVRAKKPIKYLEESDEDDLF

Compound | IC50 (HepG2) | IC50 (HEp-2) | IC50 (Caco-2 [1]; read-out: IC50) | IC50 (Calf thymus DNA) | IC50 [2] | DNA intercalation activity (qualitative) (Escherichia coli) | further results
c1ccc(CNc2nc3ccccc3n3cnnc23)cc1 | 2970 nM | 40500 nM | 4510 nM | – | – | – | –
Clc1ccccc1/C=N/Nc1nc2ccccc2n2cnnc12 | 9890 nM | 120 nM | 1150 nM | 52300 nM | 1910 nM | Active | –
O=C(NNc1nc2ccccc2n2cnnc12)Nc1ccccc1 | 710 nM | 560 nM | 1440 nM | 31300 nM | 1190 nM | – | –
COc1cccc2c1C(=O)c1c(O)c3c(c(O)c1C2=O)C[C@@](O)(C(=O)CO)C[C@@H]3O[C@H]1C[C@H](N)[C@H](O)[C@H](C)O1 [DOXORUBICIN] | 620 nM | 510 nM | – | 30200 nM | 880 nM | Active | IC50 (Caco-2 [1]): 730 nM
COc1nc2ccccc2n2cnnc12 | 8050 nM | 3950 nM | 8150 nM | – | – | – | –
c1ccc2c(c1)nc(NC1CCCCC1)c1nncn12 | 630 nM | 920 nM | 460 nM | 39400 nM | 680 nM | Active | –
CNc1nc2ccccc2n2cnnc12 | 880 nM | 3170 nM | 1480 nM | 48600 nM | 2090 nM | Active | –
CCNC(=S)NNc1nc2ccccc2n2cnnc12 | 1900 nM | 2370 nM | 3460 nM | – | 5380 nM | – | –
S=C(NNc1nc2ccccc2n2cnnc12)Nc1ccccc1 | 640 nM | 100 nM | 1290 nM | 34300 nM | 2980 nM | Active | –
COC(=O)CSc1nnc2c3nncn3c3ccccc3n12 | 9390 nM | 3110 nM | 6330 nM | – | – | – | –
O=C(CSc1nnc2c3nncn3c3ccccc3n12)Nc1ccc(F)cc1 | 760 nM | 500 nM | 800 nM | 43400 nM | 940 nM | Active | –
CCOC(=O)CSc1nnc2c3nncn3c3ccccc3n12 | 810 nM | 360 nM | 1420 nM | 62600 nM | 2120 nM | – | –
CSc1nnc2c3nncn3c3ccccc3n12 | 22700 nM | 5790 nM | > 50000 nM | – | – | – | –
CCOC(=O)CCCSc1nnc2c3nncn3c3ccccc3n12 | 5800 nM | > 50000 nM | 14800 nM | – | – | – | –
OCCNc1nc2ccccc2n2cnnc12 | 3180 nM | 140 nM | 2660 nM | – | – | – | –
COc1cc(NS(C)(=O)=O)ccc1Nc1c2ccccc2nc2ccccc12 | – | – | – | – | – | – | inhibition [3]: Active; inhibition [4]: Active
O=C(NNc1nc2ccccc2n2cnnc12)NC1CCCCC1 | 2280 nM | 320 nM | 970 nM | 28400 nM | 1220 nM | – | –
CCCCNc1nc2ccccc2n2cnnc12 | 830 nM | 10 nM | 2250 nM | 49100 nM | 1940 nM | Active | –
COc1cccc(NC(=O)CSc2nnc3c4nncn4c4ccccc4n23)c1 | 500 nM | 290 nM | 390 nM | 38600 nM | 850 nM | Active | inhibition [5]: Active; Activity (Caco-2 [6]): 3.91%; Activity (Caco-2 [7]): Active; inhibition [8]: Dose-dependent effect; Activity (Caco-2 [9]): 15.19%; Activity (Caco-2 [10]): 13.99%; Activity (Caco-2 [11]): 2.58%; Activity (Caco-2 [12]): 7.5%; viability at 0.5 µM (Caco-2 [13]): 84.5%; Activity (Caco-2 [14]): Active; Activity (Caco-2 [15]): 44.23%; Activity (Caco-2 [16]): 40.58%; Activity (Caco-2 [17]): Active; Activity (Caco-2 [18]): Active; Activity (Caco-2 [19]): Active; inhibition [20]: inactive; Activity (Caco-2 [21]): Active; inhibition [22]: inactive
CCCNc1nc2ccccc2n2cnnc12 | 1080 nM | 2330 nM | 3000 nM | – | – | – | –
c1ccc(CSc2nnc3c4nncn4c4ccccc4n23)cc1 | > 50000 nM | 5360 nM | 10500 nM | – | – | – | –
Clc1cccc(Cl)c1/C=N/Nc1nc2ccccc2n2cnnc12 | 60 nM | 520 nM | 5700 nM | 40100 nM | 2970 nM | Active | –
CCOc1nc2ccccc2n2cnnc12 | 9900 nM | 4210 nM | 6410 nM | – | – | – | –
Sc1nnc2c3nncn3c3ccccc3n12 | 560 nM | 770 nM | 570 nM | 29800 nM | 1060 nM | Active | –
COc1ccccc1/C=N/Nc1nc2ccccc2n2cnnc12 | 2440 nM | 2210 nM | 3760 nM | – | – | – | –
